ChEMBL document CHEMBL4325853, “Design, synthesis and antibacterial evaluation of 2,4-disubstituted-6-thiophenyl-pyrimidines” (Eur J Med Chem, 2019)
Converted amounts (≈) assume the structure as drawn. The source made the active and inactive calls. The rule behind the calls is not given here.

Key:
Bacillus subtilis = assay: Antibacterial activity against Bacillus subtilis 168 after 18 hrs by broth microdilution method; type: functional; conditions: subsp. subtilis str. 168, 18 h
Enterococcus faecium [1] = assay: Antibacterial activity against Enterococcus faecium ATCC 49624 after 18 hrs by broth microdilution method; type: functional; conditions: ATCC 49624, 18 h
Escherichia coli = assay: Antibacterial activity against Escherichia coli ATCC 25922 after 18 hrs by broth microdilution method; type: functional; conditions: ATCC 25922, 18 h
Enterococcus faecium [2] = assay: Potency index, ratio of berberine MIC to test compound MIC for Enterococcus faecium ATCC 49624; type: functional
Enterococcus faecalis [3] = assay: Potency index, ratio of berberine MIC to test compound MIC for Enterococcus faecalis ATCC 29212; type: functional
[4] = system: Staphylococcus epidermidis; assay: Potency index, ratio of berberine MIC to test compound MIC for Staphylococcus epidermidis ATCC 12228; type: functional
Staphylococcus aureus [5] = assay: Antibacterial activity against methicillin-resistant Staphylococcus aureus ATCC 33591 after 18 hrs by broth microdilution method; type: functional; conditions: ATCC 33591, 18 h
Staphylococcus aureus [6] = assay: Antibacterial activity against methicillin-resistant Staphylococcus aureus ATCC 33592 after 18 hrs by broth microdilution method; type: functional; conditions: ATCC 33592, 18 h
Enterococcus faecalis [7] = assay: Antibacterial activity against vancomycin-resistant Enterococcus faecalis ATCC 51575 after 18 hrs by broth microdilution method; type: functional; conditions: ATCC 51575, 18 h
Enterococcus faecalis [8] = assay: Antibacterial activity against vancomycin-resistant Enterococcus faecalis ATCC 700221 after 18 hrs by broth microdilution method; type: functional; conditions: ATCC 700221, 18 h
Staphylococcus aureus [9] = assay: Potency index, ratio of methicillin MIC to test compound MIC for methicillin-resistant Staphylococcus aureus ATCC 33592; type: functional
Staphylococcus aureus [10] = assay: Potency index, ratio of methicillin MIC to test compound MIC for methicillin-resistant Staphylococcus aureus ATCC 43300; type: functional
Staphylococcus aureus [11] = assay: Antibacterial activity against methicillin-resistant Staphylococcus aureus isolate 7247 after 18 hrs by broth microdilution method; type: functional; conditions: isolate 7247, 18 h
Staphylococcus aureus [12] = assay: Antibacterial activity against methicillin-resistant Staphylococcus aureus isolate 2671 after 18 hrs by broth microdilution method; type: functional; conditions: isolate 2671, 18 h
Staphylococcus aureus [13] = assay: Antibacterial activity against methicillin-resistant Staphylococcus aureus isolate 4127 after 18 hrs by broth microdilution method; type: functional; conditions: isolate 4127, 18 h
Staphylococcus aureus [14] = assay: Antibacterial activity against methicillin-resistant Staphylococcus aureus isolate 7807 after 18 hrs by broth microdilution method; type: functional; conditions: isolate 7807, 18 h
Staphylococcus aureus [15] = assay: Antibacterial activity against methicillin-resistant Staphylococcus aureus isolate 2931 after 18 hrs by broth microdilution method; type: functional; conditions: isolate 2931, 18 h
Staphylococcus aureus [16] = assay: Antibacterial activity against methicillin-resistant Staphylococcus aureus isolate 7863 after 18 hrs by broth microdilution method; type: functional; conditions: isolate 7863, 18 h
Staphylococcus aureus [17] = assay: Antibacterial activity against methicillin-resistant Staphylococcus aureus isolate 7943 after 18 hrs by broth microdilution method; type: functional; conditions: isolate 7943, 18 h
Staphylococcus aureus [18] = assay: Antibacterial activity against methicillin-resistant Staphylococcus aureus isolate 7947 after 18 hrs by broth microdilution method; type: functional; conditions: isolate 7947, 18 h
Staphylococcus aureus [19] = assay: Antibacterial activity against methicillin-resistant Staphylococcus aureus isolate 7813 after 18 hrs by broth microdilution method; type: functional; conditions: isolate 7813, 18 h
Staphylococcus aureus [20] = assay: Antibacterial activity against methicillin-resistant Staphylococcus aureus isolate 6334 after 18 hrs by broth microdilution method; type: functional; conditions: isolate 6334, 18 h
Staphylococcus aureus [21] = assay: Antibacterial activity against methicillin-resistant Staphylococcus aureus isolate 7972 after 18 hrs by broth microdilution method; type: functional; conditions: isolate 7972, 18 h
Staphylococcus aureus [22] = assay: Antibacterial activity against methicillin-resistant Staphylococcus aureus isolate 1220 after 18 hrs by broth microdilution method; type: functional; conditions: isolate 1220, 18 h
Staphylococcus aureus [23] = assay: Antibacterial activity against methicillin-resistant Staphylococcus aureus isolate 7960 after 18 hrs by broth microdilution method; type: functional; conditions: isolate 7960, 18 h
Staphylococcus aureus [24] = assay: Antibacterial activity against methicillin-resistant Staphylococcus aureus isolate 1651 after 18 hrs by broth microdilution method; type: functional; conditions: isolate 1651, 18 h
Staphylococcus aureus [25] = assay: Antibacterial activity against methicillin-resistant Staphylococcus aureus isolate 8071 after 18 hrs by broth microdilution method; type: functional; conditions: isolate 8071, 18 h
Staphylococcus aureus [26] = assay: Antibacterial activity against methicillin-resistant Staphylococcus aureus isolate 4955 after 18 hrs by broth microdilution method; type: functional; conditions: isolate 4955, 18 h
Staphylococcus aureus [27] = assay: Antibacterial activity against methicillin-resistant Staphylococcus aureus isolate 7844 after 18 hrs by broth microdilution method; type: functional; conditions: isolate 7844, 18 h
Staphylococcus aureus [28] = assay: Antibacterial activity against methicillin-resistant Staphylococcus aureus isolate 7916 after 18 hrs by broth microdilution method; type: functional; conditions: isolate 7916, 18 h
Staphylococcus aureus [29] = assay: Antibacterial activity against methicillin-resistant Staphylococcus aureus isolate 7682 after 18 hrs by broth microdilution method; type: functional; conditions: isolate 7682, 18 h
Staphylococcus aureus [30] = assay: Antibacterial activity against methicillin-resistant Staphylococcus aureus isolate 2350 after 18 hrs by broth microdilution method; type: functional; conditions: isolate 2350, 18 h
Staphylococcus aureus [31] = assay: Antibacterial activity against methicillin-resistant Staphylococcus aureus isolate 7664 after 18 hrs by broth microdilution method; type: functional; conditions: isolate 7664, 18 h
Staphylococcus aureus [32] = assay: Antibacterial activity against methicillin-resistant Staphylococcus aureus isolate 1708 after 18 hrs by broth microdilution method; type: functional; conditions: isolate 1708, 18 h
Staphylococcus aureus [33] = assay: Antibacterial activity against methicillin-resistant Staphylococcus aureus isolate 8078 after 18 hrs by broth microdilution method; type: functional; conditions: isolate 8078, 18 h
Staphylococcus aureus [34] = assay: Antibacterial activity against methicillin-resistant Staphylococcus aureus isolate 7434 after 18 hrs by broth microdilution method; type: functional; conditions: isolate 7434, 18 h
Staphylococcus aureus [35] = assay: Antibacterial activity against methicillin-resistant Staphylococcus aureus isolate 7449 after 18 hrs by broth microdilution method; type: functional; conditions: isolate 7449, 18 h
Staphylococcus aureus [36] = assay: Antibacterial activity against methicillin-resistant Staphylococcus aureus isolate 7183 after 18 hrs by broth microdilution method; type: functional; conditions: isolate 7183, 18 h
Staphylococcus aureus [37] = assay: Ratio of MBC to MIC for methicillin-resistant Staphylococcus aureus ATCC BAA41; type: functional
[38] = target: T1, Cell division protein FtsZ (Staphylococcus aureus) (UniProt P0A031); assay: Inhibition of recombinant Staphylococcus aureus FtsZ polymerization at 8 ug/ml by 90 degree light scattering-based fluorescence spectrometric analysis
T1 sequence (whole entry): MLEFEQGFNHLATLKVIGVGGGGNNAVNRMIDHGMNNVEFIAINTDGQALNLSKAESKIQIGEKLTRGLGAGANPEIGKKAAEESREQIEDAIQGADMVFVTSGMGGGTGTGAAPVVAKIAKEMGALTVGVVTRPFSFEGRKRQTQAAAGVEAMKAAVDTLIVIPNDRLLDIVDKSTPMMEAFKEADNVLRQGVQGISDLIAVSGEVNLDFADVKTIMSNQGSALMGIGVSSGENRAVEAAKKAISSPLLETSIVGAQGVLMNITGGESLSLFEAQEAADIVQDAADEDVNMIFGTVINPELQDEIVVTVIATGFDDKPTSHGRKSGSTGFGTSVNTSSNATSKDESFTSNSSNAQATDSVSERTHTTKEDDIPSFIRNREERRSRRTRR

Enterococcus faecalis [39] = assay: Ratio of MBC to MIC for vancomycin-resistant Enterococcus faecalis ATCC 700221; type: functional

CC(C)c1ccc(CN2CCCN(CCc3cc(-c4cccs4)nc(-c4ccncc4)n3)CC2)cc1
MIC90 (Bacillus subtilis): 2 µg/mL (≈ 4.02 µM) | MIC90 (Enterococcus faecium [1]): 2 µg/mL (≈ 4.02 µM) | MIC90 (Escherichia coli): 128 µg/mL (≈ 257 µM) | Ratio (Enterococcus faecium [2]): 50 - 100 | Ratio (Enterococcus faecalis [3]): 50 - 100 | Ratio [4]: 50 - 100 | MIC90 (Staphylococcus aureus [5]): 2 µg/mL (≈ 4.02 µM) | MIC90 (Staphylococcus aureus [6]): 2 µg/mL (≈ 4.02 µM) | MIC90 (Enterococcus faecalis [7]): 2 µg/mL (≈ 4.02 µM) | MIC90 (Enterococcus faecalis [8]): 2 µg/mL (≈ 4.02 µM) | Ratio (Staphylococcus aureus [9]): >100 | Ratio (Staphylococcus aureus [10]): >100 | MIC90 (Staphylococcus aureus [11]): 2 µg/mL (≈ 4.02 µM) | MIC90 (Staphylococcus aureus [12]): 2 µg/mL (≈ 4.02 µM) | MIC90 (Staphylococcus aureus [13]): 2 µg/mL (≈ 4.02 µM) | MIC90 (Staphylococcus aureus [14]): 2 µg/mL (≈ 4.02 µM) | MIC90 (Staphylococcus aureus [15]): 2 µg/mL (≈ 4.02 µM) | MIC90 (Staphylococcus aureus [16]): 2 µg/mL (≈ 4.02 µM) | MIC90 (Staphylococcus aureus [17]): 2 µg/mL (≈ 4.02 µM) | MIC90 (Staphylococcus aureus [18]): 2 µg/mL (≈ 4.02 µM) | MIC90 (Staphylococcus aureus [19]): 2 µg/mL (≈ 4.02 µM) | MIC90 (Staphylococcus aureus [20]): 2 µg/mL (≈ 4.02 µM) | MIC90 (Staphylococcus aureus [21]): 2 µg/mL (≈ 4.02 µM) | MIC90 (Staphylococcus aureus [22]): 2 µg/mL (≈ 4.02 µM) | MIC90 (Staphylococcus aureus [23]): 2 µg/mL (≈ 4.02 µM) | MIC90 (Staphylococcus aureus [24]): 2 µg/mL (≈ 4.02 µM) | MIC90 (Staphylococcus aureus [25]): 2 µg/mL (≈ 4.02 µM) | MIC90 (Staphylococcus aureus [26]): 2 µg/mL (≈ 4.02 µM) | MIC90 (Staphylococcus aureus [27]): 2 µg/mL (≈ 4.02 µM) | MIC90 (Staphylococcus aureus [28]): 2 µg/mL (≈ 4.02 µM) | MIC90 (Staphylococcus aureus [29]): 4 µg/mL (≈ 8.04 µM) | MIC90 (Staphylococcus aureus [30]): 2 µg/mL (≈ 4.02 µM) | MIC90 (Staphylococcus aureus [31]): 2 µg/mL (≈ 4.02 µM) | MIC90 (Staphylococcus aureus [32]): 2 µg/mL (≈ 4.02 µM) | MIC90 (Staphylococcus aureus [33]): 2 µg/mL (≈ 4.02 µM) | MIC90 (Staphylococcus aureus [34]): 2 µg/mL (≈ 4.02 µM) | MIC90 (Staphylococcus aureus [35]): 2 µg/mL (≈ 4.02 µM) | MIC90 (Staphylococcus aureus [36]): 2 µg/mL (≈ 4.02 µM) | Ratio (Staphylococcus aureus [37]): 1 | inhibition [38]: Active | Ratio (Enterococcus faecalis [39]): 2

CC(C)(C)c1ccc(CN2CCCN(CCc3cc(-c4cccs4)nc(-c4ccncc4)n3)CC2)cc1
MIC90 (Bacillus subtilis): 2 µg/mL (≈ 3.91 µM) | MIC90 (Enterococcus faecium [1]): 4 µg/mL (≈ 7.82 µM) | MIC90 (Escherichia coli): 128 µg/mL (≈ 250 µM) | Ratio (Enterococcus faecium [2]): 50 - 100 | Ratio (Enterococcus faecalis [3]): 50 - 100 | Ratio [4]: 50 - 100 | MIC90 (Staphylococcus aureus [5]): 2 µg/mL (≈ 3.91 µM) | MIC90 (Staphylococcus aureus [6]): 2 µg/mL (≈ 3.91 µM) | MIC90 (Enterococcus faecalis [7]): 4 µg/mL (≈ 7.82 µM) | MIC90 (Enterococcus faecalis [8]): 4 µg/mL (≈ 7.82 µM) | Ratio (Staphylococcus aureus [9]): >100 | Ratio (Staphylococcus aureus [10]): >100 | MIC90 (Staphylococcus aureus [11]): 2 µg/mL (≈ 3.91 µM) | MIC90 (Staphylococcus aureus [12]): 2 µg/mL (≈ 3.91 µM) | MIC90 (Staphylococcus aureus [13]): 2 µg/mL (≈ 3.91 µM) | MIC90 (Staphylococcus aureus [14]): 2 µg/mL (≈ 3.91 µM) | MIC90 (Staphylococcus aureus [15]): 2 µg/mL (≈ 3.91 µM) | MIC90 (Staphylococcus aureus [16]): 2 µg/mL (≈ 3.91 µM) | MIC90 (Staphylococcus aureus [17]): 2 µg/mL (≈ 3.91 µM) | MIC90 (Staphylococcus aureus [18]): 2 µg/mL (≈ 3.91 µM) | MIC90 (Staphylococcus aureus [19]): 2 µg/mL (≈ 3.91 µM) | MIC90 (Staphylococcus aureus [20]): 2 µg/mL (≈ 3.91 µM) | MIC90 (Staphylococcus aureus [21]): 2 µg/mL (≈ 3.91 µM) | MIC90 (Staphylococcus aureus [22]): 2 µg/mL (≈ 3.91 µM) | MIC90 (Staphylococcus aureus [23]): 2 µg/mL (≈ 3.91 µM) | MIC90 (Staphylococcus aureus [24]): 2 µg/mL (≈ 3.91 µM) | MIC90 (Staphylococcus aureus [25]): 2 µg/mL (≈ 3.91 µM) | MIC90 (Staphylococcus aureus [26]): 2 µg/mL (≈ 3.91 µM) | MIC90 (Staphylococcus aureus [27]): 2 µg/mL (≈ 3.91 µM) | MIC90 (Staphylococcus aureus [28]): 2 µg/mL (≈ 3.91 µM) | MIC90 (Staphylococcus aureus [29]): 4 µg/mL (≈ 7.82 µM) | MIC90 (Staphylococcus aureus [30]): 2 µg/mL (≈ 3.91 µM) | MIC90 (Staphylococcus aureus [31]): 2 µg/mL (≈ 3.91 µM) | MIC90 (Staphylococcus aureus [32]): 4 µg/mL (≈ 7.82 µM) | MIC90 (Staphylococcus aureus [33]): 2 µg/mL (≈ 3.91 µM) | MIC90 (Staphylococcus aureus [34]): 2 µg/mL (≈ 3.91 µM) | MIC90 (Staphylococcus aureus [35]): 2 µg/mL (≈ 3.91 µM) | MIC90 (Staphylococcus aureus [36]): 2 µg/mL (≈ 3.91 µM) | Ratio (Staphylococcus aureus [37]): 1 | inhibition [38]: Active | Ratio (Enterococcus faecalis [39]): 1
